This is an account of results in ChEMBL document CHEMBL4616610, “Discovery of a novel unsymmetrical structural class of HCV NS5A inhibitors with low picomolar antiviral activity” (Bioorg Med Chem Lett, 2020).

The target in assay [1] is T1, Nonstructural protein 5A (Hepatitis C virus, UniProt Q5L478).
T1 sequence (Q5L478 whole entry): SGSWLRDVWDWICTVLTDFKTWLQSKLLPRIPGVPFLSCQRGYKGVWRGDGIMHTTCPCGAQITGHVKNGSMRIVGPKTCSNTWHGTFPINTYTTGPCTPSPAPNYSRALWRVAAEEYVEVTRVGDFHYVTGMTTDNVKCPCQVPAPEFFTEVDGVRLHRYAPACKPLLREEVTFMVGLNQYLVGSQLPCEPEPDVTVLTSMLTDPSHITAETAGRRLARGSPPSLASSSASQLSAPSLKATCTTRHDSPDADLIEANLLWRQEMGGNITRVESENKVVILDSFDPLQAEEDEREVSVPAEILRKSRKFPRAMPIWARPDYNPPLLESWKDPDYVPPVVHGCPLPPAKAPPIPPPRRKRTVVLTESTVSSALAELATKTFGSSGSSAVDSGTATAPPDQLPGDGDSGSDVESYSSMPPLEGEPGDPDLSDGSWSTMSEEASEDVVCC
The assay is described as follows: Inhibition of NS5A in Hepatitis C virus subtype 1b replicon infected in human HuH7 cells assessed as reduction in viral replication. The note with it: huh-7. The assay is classed as cell-based. Background: Replicon systems follow genome replication, usually without infectious particles.

A short description of assay [2]: Inhibition of NS5A Q30K mutant in Hepatitis C virus subtype 1a replicon infected in human HuH7 cells assessed as reduction in viral replication. The assay is classed as cell-based. To be noted: Huh-7.
Assay [3] can be described thus: Inhibition of NS5A in Hepatitis C virus subtype 1b replicon assessed as reduction in viral replication using Ac-Asp-Glu-Asp (EDANS)-Glu-Glu-Abu-(COO) Ala-Ser-Lys (DABCYL)-NH2 as substrate measured after 72 hrs by FRET assay.
A short description of assay [4]: Inhibition of NS5A Q30K mutant in Hepatitis C virus subtype 1a replicon assessed as reduction in viral replication using Ac-Asp-Glu-Asp (EDANS)-Glu-Glu-Abu-(COO) Ala-Ser-Lys (DABCYL)-NH2 as substrate measured after 72 hrs by FRET assay.

pEC50: −log10 of the molar value.

For `CCCC(=O)Nc1ccc(-c2ccc(-c3c[nH]c([C@@H]4CCCN4C(=O)[C@H](NC(=O)N4CCCC4)c4ccccc4)n3)cc2)cc1`, the EC50 entry in assay [1] is listed as “Not Active”. As for `CCCC(=O)Nc1ccc(-c2ccc(-c3c[nH]c([C@@H]4CCCN4C(=O)[C@H](NC(=O)c4ccccc4NC(=O)OCc4ccccc4)c4ccccc4)n3)cc2)cc1`, the EC50 entry in assay [1] is “Not Active”.

As to `CCCC(=O)Nc1ccc(-c2ccc(-c3c[nH]c([C@@H]4CCCN4C(=O)[C@H](NC(=O)c4ccc(NC(=O)OCc5ccccc5)cc4)c4ccccc4)n3)cc2)cc1`, the EC50 entry in assay [1] is recorded as “Not Active”. By pEC50 is commonly meant the EC50 on a negative log10 scale, so that one unit is a factor of ten. As for `COC1CCN(C(=O)Nc2ccc(-c3ccc(-c4c[nH]c([C@@H]5CCCN5C(=O)[C@H](NC(=O)N5CC[C@@H](NC(=O)OCc6ccccc6)C5)c5ccccc5)n4)cc3)cc2)CC1`, the negative-log EC50 (pEC50) in assay [2] is 8.33.

On to `CCCC(=O)Nc1ccc(-c2ccc(-c3c[nH]c([C@@H]4CCCN4C(=O)[C@H](NC(=O)CCCCCCc4ccccc4)c4ccccc4)n3)cc2)cc1`, for which the EC50 entry in assay [1] is recorded as “Not Active”. For `CCCC(=O)Nc1ccc(-c2ccc(-c3c[nH]c([C@@H]4CCCN4C(=O)[C@H](NC(=O)N4CCC[C@H](NC(=O)OCc5ccccc5)C4)c4ccccc4)n3)cc2)cc1`, the EC50 entry in assay [1] is recorded as “Not Active”. On the same count and under the same terms, next, `CCCC(=O)Nc1ccc(-c2ccc(-c3c[nH]c([C@@H]4CCCN4C(=O)[C@H](NC(=O)c4ccccc4)c4ccccc4)n3)cc2)cc1`: “Not Active”; `CCCC(=O)Nc1ccc(-c2ccc(-c3c[nH]c([C@@H]4CCCN4C(=O)[C@H](NC(=O)CCCc4ccccc4)c4ccccc4)n3)cc2)cc1`: “Not Active”. As to `COC(=O)N[C@H](C(=O)N1CCC[C@H]1c1ncc(-c2ccc(-c3ccc(-c4cnc([C@@H]5CCCN5C(=O)[C@@H](NC(=O)OC)C(C)C)[nH]4)cc3)cc2)[nH]1)C(C)C` [DACLATASVIR], the results for the negative logarithm of the EC50 (pEC50) in assay [3] and in assay [4] were 11.05 and 5.91, respectively.
